US20260158017A1, “KIF18A INHIBITOR” (WIGEN BIOMEDICINE TECHNOLOGY (SHANGHAI) CO., LTD., priority 2021, published 2026)

molecular target: T1, Recombinant human KIF18A (1-467His-tagged) protein (Homo sapiens, UniProt Q8NI77); assay: KIF18A enzyme assay (microtubule-stimulated ATPase activity, ADP-Glo); type: biochemical; settings: 30 nM KIF18A, 75 μM ATP, 30 μg/mL pig microtubules; read-out: Inhibitory activity against KIF18A IC50
T1 construct: Recombinant human KIF18A (1-467His-tagged) protein; His; made in house
T1 sequence (Q8NI77 1-467): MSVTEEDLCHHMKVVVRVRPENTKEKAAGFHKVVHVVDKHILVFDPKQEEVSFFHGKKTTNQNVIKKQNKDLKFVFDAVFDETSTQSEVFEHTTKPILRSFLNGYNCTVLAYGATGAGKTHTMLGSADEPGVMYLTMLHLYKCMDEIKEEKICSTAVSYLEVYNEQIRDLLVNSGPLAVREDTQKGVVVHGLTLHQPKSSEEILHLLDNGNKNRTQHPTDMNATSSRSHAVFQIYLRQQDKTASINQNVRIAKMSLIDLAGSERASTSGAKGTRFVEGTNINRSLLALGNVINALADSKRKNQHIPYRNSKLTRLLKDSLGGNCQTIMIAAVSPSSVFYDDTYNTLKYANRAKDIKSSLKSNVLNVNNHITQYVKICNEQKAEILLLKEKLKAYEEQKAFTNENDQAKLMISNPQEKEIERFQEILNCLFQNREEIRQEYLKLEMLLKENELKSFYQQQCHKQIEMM
T1 sequence (P02550 whole entry partner): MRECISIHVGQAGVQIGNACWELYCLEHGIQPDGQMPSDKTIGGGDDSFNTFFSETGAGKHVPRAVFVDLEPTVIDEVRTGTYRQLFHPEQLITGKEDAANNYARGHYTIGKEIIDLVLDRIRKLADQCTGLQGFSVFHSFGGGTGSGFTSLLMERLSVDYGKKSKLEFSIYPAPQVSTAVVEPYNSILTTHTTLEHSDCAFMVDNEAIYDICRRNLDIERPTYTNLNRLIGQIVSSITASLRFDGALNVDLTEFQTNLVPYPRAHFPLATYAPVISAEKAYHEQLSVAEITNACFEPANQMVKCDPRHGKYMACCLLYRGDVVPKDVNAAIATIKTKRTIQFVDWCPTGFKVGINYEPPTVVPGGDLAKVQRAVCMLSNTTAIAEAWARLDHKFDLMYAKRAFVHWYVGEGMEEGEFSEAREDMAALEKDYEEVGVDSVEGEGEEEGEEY
T1 sequence (P02554 whole entry partner): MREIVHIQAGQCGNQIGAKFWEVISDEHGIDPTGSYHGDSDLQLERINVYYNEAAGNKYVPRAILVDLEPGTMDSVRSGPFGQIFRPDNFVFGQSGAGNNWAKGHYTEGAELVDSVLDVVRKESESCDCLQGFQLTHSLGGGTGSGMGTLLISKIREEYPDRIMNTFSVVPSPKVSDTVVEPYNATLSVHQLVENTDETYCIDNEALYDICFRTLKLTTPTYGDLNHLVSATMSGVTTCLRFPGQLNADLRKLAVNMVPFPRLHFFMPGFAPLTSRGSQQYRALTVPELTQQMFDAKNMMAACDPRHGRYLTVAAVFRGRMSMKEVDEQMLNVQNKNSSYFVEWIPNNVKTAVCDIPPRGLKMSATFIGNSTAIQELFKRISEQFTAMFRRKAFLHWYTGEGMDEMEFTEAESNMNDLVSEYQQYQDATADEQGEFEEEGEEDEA
Summary of the method: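 Buffer 15 mM Tris pH 7.5, 10 mM MgCl2, 0.01% Pluronic F-68, 1 μM paclitaxel, 30 μg/mL pig microtubules; reactions at room temperature. IC50 from inhibition relative to DMSO.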

Row | Structure (SMILES) | IC50
1 | O=C(Nc1ccc(S(=O)(=O)NCCO)cc1N1CCC2(CC1)CC2)c1ccc(OCF)c(N2CCC(F)CC2)c1 [Compound 537] | 100 to 500 nM
2 | O=C(Nc1ccc(S(=O)(=O)NCCO)cc1N1CCC2(CC1)CC2)c1ccc(OCF)c(N2CC3CC3C2)c1 (stereo not drawn) [Compound 538] | 100 to 500 nM
3 | CC(C)(CO)Nc1cc(C(=O)Nc2ccc(S(=O)(=O)NCCO)cc2N2CCC3(CC2)CC3)ccc1OCF [Compound 539] | 100 to 500 nM
4 | O=C(Nc1ccc(S(=O)(=O)NCCO)cc1N1CCC2(CC1)CC2)c1ccc(OCF)c(N2CCOCC2)c1 [Compound 540] | 100 to 500 nM
5 | C[C@@H](CO)NS(=O)(=O)c1ccc(NC(=O)c2ccc(OCF)c(N3CCC(F)(F)CC3)c2)c(N2CCC3(CC2)CC3)c1 [Compound 541] | 100 to 500 nM
6 | C[C@H](CO)NS(=O)(=O)c1ccc(NC(=O)c2ccc(OCF)c(N3CCC(F)(F)CC3)c2)c(N2CCC3(CC2)CC3)c1 [Compound 542] | 100 to 500 nM
7 | C[C@@H]1CN(c2cc(C(=O)Nc3ccc(S(=O)(=O)N[C@@H](C)CO)cc3N3CCC4(CC3)CC4)ccc2OCF)CCO1 [Compound 543] | 100 to 500 nM
8 | C[C@H](CO)NS(=O)(=O)c1ccc(NC(=O)c2ccc(OCF)c(N3CCO[C@H](C)C3)c2)c(N2CCC3(CC2)CC3)c1 [Compound 544] | 100 to 500 nM
9 | O=C(Nc1ccc(NS(=O)(=O)CCO)cc1N1CCC2(CC1)CC2)c1ccc(OCF)c(N2CCC(F)(F)CC2)n1 [Compound 545] | ≤ 100 nM
10 | C[C@@H]1CN(c2nc(C(=O)Nc3ccc(NS(=O)(=O)CCO)cc3N3CCC4(CC3)CC4)ccc2OCF)CCO1 [Compound 546] | ≤ 100 nM
11 | C[C@H]1CN(c2nc(C(=O)Nc3ccc(NS(=O)(=O)CCO)cc3N3CCC4(CC3)CC4)ccc2OCF)CCO1 [Compound 547] | ≤ 100 nM
12 | O=C(Nc1ccc(NS(=O)(=O)CCO)cc1N1CCC2(CC1)CC2)c1ccc(OCF)c(N2CC(F)(F)C2)n1 [Compound 548] | ≤ 100 nM
13 | O=C(Nc1ccc(NS(=O)(=O)CCO)cc1N1CCC2(CC1)CC2)c1ccc(OCF)c(OCCC(F)(F)F)n1 [Compound 549] | ≤ 100 nM
14 | O=C(Nc1ccc(NS(=O)(=O)CCO)cc1N1CCC2(CC1)CC2)c1ccc(OCF)c(N2CCC3(CC3)C2)n1 [Compound 550] | ≤ 100 nM
15 | O=C(Nc1ccc(NS(=O)(=O)CCO)cc1N1CCC2(CC1)CC2)c1ccc(OCF)c(OC2CCC2)n1 [Compound 551] | ≤ 100 nM
16 | CC1(F)CCN(c2nc(C(=O)Nc3ccc(NS(=O)(=O)CCO)cc3N3CCC4(CC3)CC4)ccc2OCF)C1 (stereo not drawn) [Compound 552] | ≤ 100 nM
17 | O=C(Nc1ccc(NS(=O)(=O)CCO)cc1N1CCC2(CC1)CC2)c1ccc(OCF)c(N2CCC(F)CC2)n1 [Compound 553] | ≤ 100 nM
18 | O=C(Nc1ccc(NS(=O)(=O)CCO)cc1N1CCC2(CC1)CC2)c1ccc(OCF)c(N2CC3CC3C2)n1 (stereo not drawn) [Compound 554] | ≤ 100 nM
19 | CC(C)(CO)Nc1nc(C(=O)Nc2ccc(NS(=O)(=O)CCO)cc2N2CCC3(CC2)CC3)ccc1OCF [Compound 555] | ≤ 100 nM
20 | O=C(Nc1ccc(NS(=O)(=O)CCO)cc1N1CCC2(CC1)CC2)c1ccc(OCF)c(N2CCOCC2)n1 [Compound 556] | ≤ 100 nM
21 | C[C@@H](CO)S(=O)(=O)Nc1ccc(NC(=O)c2ccc(OCF)c(N3CCC(F)(F)CC3)n2)c(N2CCC3(CC2)CC3)c1 [Compound 557] | ≤ 100 nM
22 | C[C@H](CO)S(=O)(=O)Nc1ccc(NC(=O)c2ccc(OCF)c(N3CCC(F)(F)CC3)n2)c(N2CCC3(CC2)CC3)c1 [Compound 558] | ≤ 100 nM
23 | C[C@@H]1CN(c2nc(C(=O)Nc3ccc(NS(=O)(=O)[C@@H](C)CO)cc3N3CCC4(CC3)CC4)ccc2OCF)CCO1 [Compound 559] | ≤ 100 nM
24 | C[C@@H]1CN(c2nc(C(=O)Nc3ccc(NS(=O)(=O)[C@H](C)CO)cc3N3CCC4(CC3)CC4)ccc2OCF)CCO1 [Compound 560] | ≤ 100 nM

Row | Structure (SMILES) | IC50
25 | O=C(Nc1ccc(S(=O)(=O)NCCO)cc1N1CCC2(CC1)CC2)c1ccc(OCF)c(N2CCC(F)(F)CC2)n1 [Compound 561] | 100 to 500 nM
26 | C[C@@H]1CN(c2nc(C(=O)Nc3ccc(S(=O)(=O)NCCO)cc3N3CCC4(CC3)CC4)ccc2OCF)CCO1 [Compound 562] | 100 to 500 nM
27 | C[C@H]1CN(c2nc(C(=O)Nc3ccc(S(=O)(=O)NCCO)cc3N3CCC4(CC3)CC4)ccc2OCF)CCO1 [Compound 563] | 100 to 500 nM
28 | O=C(Nc1ccc(S(=O)(=O)NCCO)cc1N1CCC2(CC1)CC2)c1ccc(OCF)c(N2CC(F)(F)C2)n1 [Compound 564] | 100 to 500 nM
29 | O=C(Nc1ccc(S(=O)(=O)NCCO)cc1N1CCC2(CC1)CC2)c1ccc(OCF)c(OCCC(F)(F)F)n1 [Compound 565] | 100 to 500 nM
30 | O=C(Nc1ccc(S(=O)(=O)NCCO)cc1N1CCC2(CC1)CC2)c1ccc(OCF)c(N2CCC3(CC3)C2)n1 [Compound 566] | 100 to 500 nM
31 | O=C(Nc1ccc(S(=O)(=O)NCCO)cc1N1CCC2(CC1)CC2)c1ccc(OCF)c(OC2CCC2)n1 [Compound 567] | 100 to 500 nM
32 | CC1(F)CCN(c2nc(C(=O)Nc3ccc(S(=O)(=O)NCCO)cc3N3CCC4(CC3)CC4)ccc2OCF)C1 (stereo not drawn) [Compound 568] | 100 to 500 nM
33 | O=C(Nc1ccc(S(=O)(=O)NCCO)cc1N1CCC2(CC1)CC2)c1ccc(OCF)c(N2CCC(F)CC2)n1 [Compound 569] | 100 to 500 nM
34 | O=C(Nc1ccc(S(=O)(=O)NCCO)cc1N1CCC2(CC1)CC2)c1ccc(OCF)c(N2CC3CC3C2)n1 (stereo not drawn) [Compound 570] | 100 to 500 nM
35 | CC(C)(CO)Nc1nc(C(=O)Nc2ccc(S(=O)(=O)NCCO)cc2N2CCC3(CC2)CC3)ccc1OCF [Compound 571] | 100 to 500 nM
36 | O=C(Nc1ccc(S(=O)(=O)NCCO)cc1N1CCC2(CC1)CC2)c1ccc(OCF)c(N2CCOCC2)n1 [Compound 572] | 100 to 500 nM
37 | C[C@@H](CO)NS(=O)(=O)c1ccc(NC(=O)c2ccc(OCF)c(N3CCC(F)(F)CC3)n2)c(N2CCC3(CC2)CC3)c1 [Compound 573] | 100 to 500 nM
38 | C[C@H](CO)NS(=O)(=O)c1ccc(NC(=O)c2ccc(OCF)c(N3CCC(F)(F)CC3)n2)c(N2CCC3(CC2)CC3)c1 [Compound 574] | 100 to 500 nM
39 | C[C@@H]1CN(c2nc(C(=O)Nc3ccc(S(=O)(=O)N[C@@H](C)CO)cc3N3CCC4(CC3)CC4)ccc2OCF)CCO1 [Compound 575] | 100 to 500 nM
40 | C[C@H](CO)NS(=O)(=O)c1ccc(NC(=O)c2ccc(OCF)c(N3CCO[C@H](C)C3)n2)c(N2CCC3(CC2)CC3)c1 [Compound 576] | 100 to 500 nM
41 | CSc1ccc(NC(=O)c2ccc(NS(=O)(=O)CCO)cc2N2CCC3(CC2)CC3)cc1N1CCC(F)(F)CC1 [Compound 577] | ≤ 100 nM
42 | CSc1ccc(NC(=O)c2ccc(NS(=O)(=O)CCO)cc2N2CCC3(CC2)CC3)cc1N1CCO[C@H](C)C1 [Compound 578] | ≤ 100 nM
43 | CSc1ccc(NC(=O)c2ccc(NS(=O)(=O)CCO)cc2N2CCC3(CC2)CC3)cc1N1CCO[C@@H](C)C1 [Compound 579] | ≤ 100 nM
44 | CSc1ccc(NC(=O)c2ccc(NS(=O)(=O)CCO)cc2N2CCC3(CC2)CC3)cc1N1CC(F)(F)C1 [Compound 580] | ≤ 100 nM
45 | CSc1ccc(NC(=O)c2ccc(NS(=O)(=O)CCO)cc2N2CCC3(CC2)CC3)cc1OCCC(F)(F)F [Compound 581] | ≤ 100 nM
46 | CSc1ccc(NC(=O)c2ccc(NS(=O)(=O)CCO)cc2N2CCC3(CC2)CC3)cc1N1CCC2(CC2)C1 [Compound 582] | ≤ 100 nM
47 | CSc1ccc(NC(=O)c2ccc(NS(=O)(=O)CCO)cc2N2CCC3(CC2)CC3)cc1OC1CCC1 [Compound 583] | ≤ 100 nM
48 | CSc1ccc(NC(=O)c2ccc(NS(=O)(=O)CCO)cc2N2CCC3(CC2)CC3)cc1N1CCC(C)(F)C1 (stereo not drawn) [Compound 584] | ≤ 100 nM
